Holding throughout (assay type): binding, sheep
The test system of assay [1] is antibodies raised to Immunogens I & II. Description: Competitive ELISA, selected molecules as potential cross-reactants (Table 3). The following applies: for % CR / IC50: Table 3, standard conc 750.00 ng/ml. The protocol: (a) The wells of an enhanced binding 96 well polystyrene microtiter plate were coated with the Ig fraction of the antiserum raised to Immunogen I (Hapten A-BTG—example 5) and diluted in 10 mM Tris, pH8.5 (125 μl/well). The appropriate antibody coating concentration was determined using standard ELISA checkerboard techniques. The plate was incubated for 2 hours at 37° C., washed 4 times over a 10-minute period with Tris buffered saline containing Tween 20 (TBST) and tapped dry. Standard solutions of JWH synthetic cannabinoids, metabolites and selected molecules were prepared in TBST and 50 μl of each was added to the appropriate wells. 75 μl of conjugate (Hapten A-HRP) diluted in Tris buffer containing EDTA, D-mannitol, sucrose, thimerosal and BSA, was added to each of the wells. The appropriate dilution of conjugate was also determined using standard ELISA checkerboard techniques. The plate was incubated at 25° C. for 1 hour. The excess unbound conjugate was removed by washing 6 times over a 10-minute period with TBST and tapped dry. 125 μl of tetramethylbenzedine (TMB) substrate solution was added to each well of the plate that was then incubated for 15-20 minutes in the dark at room temperature. The reaction was terminated by addition of 125 μl of 0.2M sulphuric acid to each well. The absorbance was then measured at 450 nm using a microtiter plate reader.
Employing each series of standards, calibration curves were generated and these were used to determine the specificity of the immunoassay for the JWH synthetic cannabinoids, metabolites and selected molecules. The results of this study are presented in Tables 1 to 3, cross-reactivity being calculated according to the following formula: % CR=IC50,JWH-018/IC50,CR×100
Where % CR is the percentage cross-reactivity, IC50, JWH-018 is the concentration of JWH-018 that causes 50% displacement of signal and IC50, CR is the concentration of JWH synthetic cannabinoid/metabolite/selected molecule that causes 50% displacement of signal.
The antibody produced from Immunogen I is able to bind to JWH molecules known to be incorporated in herbal therapeutics such as JWH-018, proposed metabolites such as M2 (Wintermeyer et al 2010), and potential metabolites such as M5. The detection and quantification of other JWH SSCs is also provided for, the antibodies of the invention bind a range of molecules comprising the 3-(1-naphthoyl)-1H-indole structure (e.g. JWH-071, JWH-398, M1 etc.). […] The concept of using the antibodies of the invention to detect and determine future stealth synthetic cannabinoids is highlighted in Table 4; the 5-fluoropentyl derivative known to bind the CB 1 receptor, but which as of yet has not been detected in herbal therapeutics or similar substances, binds to antibodies raised from Immunogens I and II.
On the technique in general: ELISA stands for enzyme-linked immunosorbent assay.

Assay [2] concerns IgG fraction of antiserum raised to Immunogen I. The following applies: Antibody to Immunogen I; cross-reactants at 100 ng/ml; 1000 ng/ml; standard JWH-018. The method, boiled down:
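Plates were coated with the IgG fraction of sheep antiserum raised to Immunogen I and incubated with standards (JWH-018, 0-40 ng/ml) plus hapten-HRP conjugate for 1 h at 25° C. Detection used TMB, read at 450 nm. IC50 was taken from a 4-parameter fit as the concentration giving half the zero-standard OD.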

The subject of assay [3] is IgG fraction of antiserum raised to Immunogen IV. The following applies: Antibody to Immunogen IV; cross-reactants at 100 ng/ml; 1000 ng/ml; standard JWH-018.
For assay [4], the system named is IgG fraction of antiserum raised to Immunogen VIII. The following applies: Antibody to Immunogen VIII; cross-reactants at 100 ng/ml; 1000 ng/ml; standard JWH-018.
In assay [5] the test system is IgG fraction of antiserum raised to Immunogen VII.
The test system of assay [6] is IgG fraction of antiserum raised to Immunogen II. The assay is described as follows: Competitive ELISA, antibody RS1833B12 to Immunogen II, tracer ESC4555 (Example 36). As to conditions: Antibody to Immunogen II; cross-reactants at 100 ng/ml; 1000 ng/ml; standard JWH-018. The protocol: An aqueous solution of each immunogen was formulated with Freund's Complete Adjuvant (FCA) to form an emulsion consisting of 2 mg/ml*immunogen in 50% (v/v) FCA. Three sheep were immunised with this emulsion (1° immunisation), 0.25 ml being intramuscularly injected at each of four sites in the flank of each animal. Subsequent immunizations (boosts) contained 1 mg/ml*immunogen. All boosts were emulsified in 50% (v/v) Freund's Incomplete Adjuvant (FIA) and were administered in the same manner as the 1° immunisation, at monthly intervals. Blood sampling took place 7 to 14 days after each boost. *The general procedure for immunogen administration is outlined above, however, it was necessary to deviate from this protocol in some cases, due to reduced immunogen concentrations (Immunogens II, IV, VII and VIII) and/or amount available (Immunogen VIII). Any deviations from the protocol described are outlined in Table 5 below and highlighted in bold.
The appropriate antibody coating dilution was determined using standard ELISA checkerboard techniques. The plate was incubated overnight at 4° C., washed 4 times over 10 minutes with Tris buffered saline containing Tween 20 (TBST) and tapped dry. […] 75 μl of conjugate (appropriate hapten-HRP) diluted in Tris buffer (pH 7.2) containing EDTA, D-mannitol, sucrose, thimerosal and BSA, was added to each of the wells. The appropriate dilution of conjugate was also determined using standard ELISA checkerboard techniques. The plate was incubated at 25° C. for 1 hour. Excess unbound conjugate was removed by washing 6 times over a 10 minute period with TBST. 125 μl of tetramethylbenzidine (TMB) substrate solution was added to each well of the plate that was then incubated for 20 minutes in the dark at room temperature. The reaction was terminated by addition of 125 μl 0.2M H2SO4 to each well. The absorbance was then measured at 450 nm using a microtiter plate reader. The data are inputted to a computer program called ‘KC Junior’. It is a 4 parameter fit curve and allow the calculation of concentrations between the standard runs.
In a similar manner to that described above, the wells of a 96-well microtiter plate were coated with the IgG fraction of the antiserum raised to Immunogens I or II.
The data set out in Tables 7-10 are generated using antibodies raised against the indicated Immunogens in a competitive binding assay with the indicated tracers, using the indicated standards
Using the calibration curves generated and employing a single level of cross reactants, these were used to determine the cross-reactivity of each immunoassay with these substances. These are the standards used for the IC50 and cross-reactivity data generation: […]

Setting [7] is: Antibody to Immunogen VII, cross-reactants at 100 ng/ml, 1000 ng/ml, standard JWH-015.

Like-named read-outs stand apart in the source and are kept apart here.

For orientation: IC50 means the point on the concentration scale where inhibition reaches its midpoint. As for `O=C(O)Cc1c[nH]c2ccc(O)cc12` [5-hydroxyindole-3-acetic acid], the “% CR” value in assay [1] is below 0.28%. The IC50 in assay [1] is above 0.75 mg/L. The “% B/B0” value worked out at 98.71% in assay [2], 96.61% in assay [3], 108.24% in assay [4] and 99.46% in assay [5] (setting [7]).
With `CCCCCc1cc(O)c2c(c1)OC(C)(C)[C@@H]1CCC(C)=C[C@@H]21` [Delta 9 THC], the “% CR” value in assay [1] was below 0.28%. In assay [1], the IC50 was above 0.75 mg/L. Besides, the “% B/B0” value in assay [2] amounted to 102.66%; in assay [3], 93.62%; in assay [4] it was 96.10%; in assay [5] (setting [7]), 96.76%.
As for `O=C(O)c1c[nH]c2ccccc12` [Indole-3-carboxylic Acid], in assay [1], the “binding / cross-reaction with antibodies raised from Immunogens I and II (in words)” value is reported as “do not cross-react”. Besides, the “% CR” value in assay [1] was below 0.28%. In addition, in assay [1], the IC50 is above 0.75 mg/L. The “% B/B0” value in assay [2] is reported as 101.26%; in assay [3], 93.42%; in assay [4] it was 96.28%; in assay [5] (setting [7]), 96.90%.
`NCCc1c[nH]c2ccc(O)cc12` [Serotonin]: in assay [1], the “% CR” value was below 0.28% and the IC50 was above 0.75 mg/L.
With `COc1cccc2[nH]cc(CCN(C)C)c12` [4-Methoxypsilocin], in assay [1], the “% CR” value is below 0.28% and the IC50 is above 0.75 mg/L.
Taken in the same sequence, the figures for `CCCCCn1cc(C(=O)O)c2ccccc21` [3-Carboxy-N-pentyl-1H-indole, 3-carboxy-1-pentyl-1H-indole] were below 0.28% and above 0.75 mg/L.
For the compound `CCCCCc1cc(O)c2c(c1)OC(C)(C)c1ccc(C)cc1-2` [Cannabinol], the “% CR” value in assay [1] is below 0.28%. The IC50 in assay [1] is above 0.75 mg/L. Besides, the “% B/B0” value in assay [2] was found to be 86.60%; in assay [3] it was 94.74%; in assay [4] it was 94.03%; in assay [5] (setting [7]), 95.43%.
With `CCCCCCC(C)(C)c1ccc([C@H]2CCC[C@@H](O)C2)c(O)c1` [CP-49,497-C7], the “% CR” value in assay [1] was below 0.28%. The 50% inhibitory concentration (IC50) in assay [1] was above 0.75 mg/L. Further, the “% B/B0” value in assay [2] was 101.20%; in assay [3], 96.84%; in assay [4], 86.95%; in assay [5] (setting [7]), 94.23%.
Regarding `OCCc1c[nH]c2ccc(O)cc12` [5-hydroxytryptophol], the “% CR” value in assay [1] is given as below 0.28%. Besides, in assay [1], the IC50 was above 0.75 mg/L. Besides, the “% B/B0” value in assay [2] came to 93.30%; in assay [3], 94.51%; in assay [4], 102.93%; in assay [5] (setting [7]), 98.45%.
As to `CCn1cc(C(=O)c2cccc3ccccc23)c2ccccc21` [JWH-071], in assay [1], the “binding / cross-reaction with antibodies raised from Immunogens I and II (in words)” value is reported as “bind”.
`CCCn1c(C)c(C(=O)c2cccc3ccccc23)c2ccccc21` [JWH-015]: the “% B/B0” value in assay [2] turned out to be 14.67%; in assay [6], 65.67%; in assay [3], 93.20%; in assay [4], 92.27%; in assay [5] (setting [7]) it was 17.84%; in assay [5] (JWH-015 1.25 ng/ml) it was 75%. The “% B/B0” value in assay [5] (JWH-015 2.5 ng/ml) is listed as 62%; in assay [5] (JWH-015 5 ng/ml), 54%; in assay [5] (JWH-015 10 ng/ml), 43%; in assay [5] (JWH-015 20 ng/ml), 34%; in assay [5] (JWH-015 40 ng/ml), 26%; in assay [5] (JWH-015 80 ng/ml), 20%. Also, the IC50 in assay [5] (Table 9 standard curve, standard concentration which produces 50% B/B0) came out at 0.00591 mg/L.
In the case of `O=C(c1ccc(Cl)c2ccccc12)c1cn(CCCCCO)c2ccccc12` [JWH-398 N-(5-hydroxypentyl) metabolite], the “% B/B0” value in assay [2] turned out to be 48.07%; in assay [6], 67.49%; in assay [3], 22.01%; in assay [4], 51.33%; in assay [5] (setting [7]), 82.97%.
With `CCCCCc1cc(O)c2c(c1)OC(C)(C)[C@@H]1CCC(CO)=C[C@@H]21` [11-Hydroxy-δ-9-THC], in assay [1], the “% CR” value was below 0.28% and the IC50 was above 0.75 mg/L.
As for `CCCCCn1cc(C(=O)c2c(C)ccc3ccccc23)c2ccccc21` [JWH 122 2-methylnaphthyl isomer], the “% B/B0” value in assay [2] amounted to 33.35%; in assay [6] it was 27.14%; in assay [3] it was 26.13%; in assay [4], 61.74%; in assay [5] (setting [7]), 85.37%.
Consider `O=C(c1cccc2ccccc12)c1cn(CCN2CCOCC2)c2ccc(O)cc12` [JWH-200 5-hydroxyindole metabolite], for which the “% B/B0” value turned out to be 12.61% in assay [2]; 64.99% in assay [6]; 97.53% in assay [3]; 90.88% in assay [4]; 82.42% in assay [5] (setting [7]).
Turning to `O=C(c1cccc2ccccc12)c1cn(CCCCO)c2ccccc12` [JWH-073 N-(4-hydroxybutyl) metabolite], the “% B/B0” value stood at 3.22% in assay [2]; 60.01% in assay [6]; 52.61% in assay [3]; 57.99% in assay [4]; 48.81% in assay [5] (setting [7]).
